# According to patent US20110076293A1, “TRIPTOLIDE DERIVATIVES FOR MODULATION OF APOPTOSIS AND IMMUNOSUPPRESSION” (priority 2002, published 2011):
# Where two headings read alike, the source gives them in different places.
# Experiments:
# [1] = test system: Jurkat human T lymphocyte cell line; assay: Apoptosis assay (Annexin V) of compounds incubated with human serum; conditions: for EC50: Homo sapiens, Jurkat
# Description: Compounds of formula I, as shown in Table 1 above and in the Examples, were assayed for their capacity to induce apoptosis in cells from the Jurkat human T lymphocyte cell line, after incubation with pooled human serum for varying periods of time at 37° C. (see Example 19). An ester prodrug, triptolide-14-succinate, designated PG490-88, was included for comparison. The extent of conversion to triptolide after such incubation was also independently determined by HPLC analysis.
# The ED50 values (column 3) are calculated directly from the data in each experiment, and the % conversion values (column 4) are calculated as percent of the ED50 value produced by triptolide, designated PG490, incubated in the same plasma (i.e. in the same experiment).
# A. Incubation of compounds with human serum. Pooled human serum was stored in aliquots at −80° C. Test compounds were added at 20 mM to thawed human serum in 1.5 ml microfuge tubes and incubated at 37° C. in a water bath for varying periods of time. The test samples were placed on ice until dilution for the bioassay. Controls consisted of the compounds incubated in complete tissue culture medium (RPMI 1640 medium plus 5% heat-inactivated fetal calf serum, 1% HEPES, 1% pen/strep, 1% glutamine) rather than human serum.
# B. Apoptosis assay of compounds incubated with human serum. Test samples were diluted to 1 mM in complete tissue culture medium. Aliquots were placed in microculture plates and serial dilutions were prepared so that the final concentration would encompass the range of 1 to 10,000 nM with half-log increments. Cells from an exponentially expanding culture of the Jurkat human T lymphocyte cell line (#TIB-152 obtained from American Type Culture Collection, Manassas, Va.) were harvested, washed once by centrifugation and dilution in complete tissue culture medium, and diluted to a concentration of 1×10^6 cells/ml. A volume of 100 μl of Jurkat cells (1×10^5 cells) was added to wells containing 100 μl of the diluted compounds, and the plates were incubated at 37° C. in a 5% CO2 incubator. After 24 hours, the plates were centrifuged to pellet the cells, and the cells were washed twice with 2% heat-inactivated fetal calf serum in PBS. To each well, 500 ul of binding buffer was added according to the Annexin V assay procedure (BioVision, Inc., Mountain View, Calif.). Next, 5 μl of the fluorescein isothiocyanate (FITC) conjugate of Annexin V (BioVision, Inc.) was added to each well, followed by 5 minutes of incubation in the dark. In some assays, propidium iodide (BioVision, Inc.) was added at this stage to check for necrotic cells. The contents of the wells were individually transferred into test tubes, and apoptosis was analyzed using a FACSCalibur flow cytometer (BD Immunocytometry Systems, San Jose, Calif.). Cells positive for Annexin V binding were considered to be apoptotic, and the data were calculated as percent apoptotic cells.
# (§1) C. Comparison of bioactivities after incubation of compounds in human serum. The data were plotted as the concentration of compound incubated in serum versus percent apoptotic cells. The concentration of compound inducing 50% apoptosis (ED50) was calculated from these dose response curves. […] This percentage conversion was used to compare the bioactivity of various compounds after incubation in human serum.
# [2] = test system: IL-2 production in Jurkat human T lymphocyte cells; assay: IL-2 production assay for activity of compounds incubated with human serum; conditions: for IC50: Homo sapiens, Jurkat, 48 h, IL-2 production in Jurkat cells after incubation with pooled human serum for 48 hours at 37° C.; for Conversion (%): percent of the IC50 value produced by triptolide (PG490) in the same experiment, human serum 48 hours; for bioactivity in IL-2 inhibition assays (in words): FIGS. 4-5
# Description: Several compounds of formula I were analyzed for their capacity to inhibit IL-2 production in Jurkat human T lymphocyte cells, after incubation with pooled human serum for 48 hours at 37° C. (see Example 20). An ester prodrug, triptolide-14-succinate, designated PG490-88, was included for comparison.
# The IC50 values (column 1) are calculated directly from the data in each experiment. The % conversion values (column 2) are calculated as the percent of the IC50 value produced by triptolide, designated PG490, incubated in the same plasma (i.e. in the same experiment).
# A. IL-2 production assay for activity of compounds incubated with human serum. Test samples were diluted to 1 mM in complete tissue culture medium. […] Cells from an exponentially expanding culture of the Jurkat human T lymphocyte cell line (#TIB-152 obtained from American Type Culture Collection, Manassas, Va.) were harvested, washed once by centrifugation and dilution in complete tissue culture medium, and diluted to a concentration of 2×10^6 cells/ml. A volume of 50 μl of Jurkat cells (1×10^5 cells) was added to wells containing 100 μl of the diluted compounds, 50 μl of PMA (10 ng/ml) was added to each well, and the plates were incubated at 37° C. in a 5% CO2 incubator. After 24 hours, the plates were centrifuged to pellet the cells, 150 μl of supernatant was removed from each well, and the samples were stored at −20° C. The stored supernatants were analyzed for human IL-2 concentration using the Luminex 100 (Luminex Corporation, Austin, Tex.), Luminex microspheres coupled with anti-IL-2 capture antibody, and fluorochrome-coupled anti-IL-2 detection antibody. The data were expressed as ng/ml of IL-2.
# as §1, with “B.” for “C.”, “IL-2 concentration.” for “percent apoptotic cells.”, “inducing a” for “inducing”, “decrease in the IL-2 concentration (IC50)” for “apoptosis (ED50)”
# [3] = 48 h, read-out: ED50 (nM) in apoptosis assay after incubation with serum, incubation time in human serum 48 hours, 37° C.
# [4] = incubation time in human serum 48 hours
smiles,measurement,setting,value
"CC(C)[C@]12O[C@H]1[C@@H]1O[C@]13[C@]1(O[C@H]1C[C@H]1C4=C(CC[C@@]13C)C(=O)OC4)[C@@H]2OC(=O)OC(C)(C)C [PG695, Triptolide 14-tert-Butyl Carbonate]",EC50,[1]; [3],59 nM
same,"Conversion, as relative ED50 compared to triptolide (%)",[1]; [4],100%
same,IC50,[2],100 nM
same,Conversion (%),[2],2%
"CC(C)[C@]12O[C@H]1[C@@H]1O[C@]13[C@]1(O[C@H]1C[C@H]1C4=C(CC[C@@]13C)C(=O)OC4)[C@@H]2OC(=O)NCCN(C)C [PG688, Triptolide 14-Dimethylaminoethyl Carbamate]",conversion in human serum (in words),[1],less readily converted
same,% apoptotic cells at given concentration (nM),"[1]; Table 5, human serum (48 hrs), 1 nM",9.2%
same,% apoptotic cells at given concentration (nM),"[1]; Table 5, human serum (48 hrs), 3 nM",9.8%
same,% apoptotic cells at given concentration (nM),"[1]; Table 5, human serum (48 hrs), 10 nM",9.4%
same,% apoptotic cells at given concentration (nM),"[1]; Table 5, human serum (48 hrs), 30 nM",9.5%
same,% apoptotic cells at given concentration (nM),"[1]; Table 5, human serum (48 hrs), 100 nM",9.4%
same,% apoptotic cells at given concentration (nM),"[1]; Table 5, human serum (48 hrs), 300 nM",8.7%
same,% apoptotic cells at given concentration (nM),"[1]; Table 5, human serum (48 hrs), 1000 nM",8.6%
same,% apoptotic cells at given concentration (nM),"[1]; Table 5, human serum (48 hrs), 3000 nM",8.2%
same,% apoptotic cells at given concentration (nM),"[1]; Table 5, medium, 1 nM",13.0%
same,% apoptotic cells at given concentration (nM),"[1]; Table 5, medium, 3 nM",14.0%
same,% apoptotic cells at given concentration (nM),"[1]; Table 5, medium, 10 nM",12.1%
same,% apoptotic cells at given concentration (nM),"[1]; Table 5, medium, 30 nM",10.9%
same,% apoptotic cells at given concentration (nM),"[1]; Table 5, medium, 100 nM",11.2%
same,% apoptotic cells at given concentration (nM),"[1]; Table 5, medium, 300 nM",11.3%
same,% apoptotic cells at given concentration (nM),"[1]; Table 5, medium, 1000 nM",12.1%
same,% apoptotic cells at given concentration (nM),"[1]; Table 5, medium, 3000 nM",10.9%
same,bioactivity in IL-2 inhibition assays (in words),[2],some level of bioactivity
same,IL-2 pg/mL at given concentration (nM),"[2]; Table 7, Jurkat cells (48 hrs), 0.001 nM",883.9 pg/mL
same,IL-2 pg/mL at given concentration (nM),"[2]; Table 7, Jurkat cells (48 hrs), 0.01 nM",754.1 pg/mL
same,IL-2 pg/mL at given concentration (nM),"[2]; Table 7, Jurkat cells (48 hrs), 0.1 nM",810.4 pg/mL
same,IL-2 pg/mL at given concentration (nM),"[2]; Table 7, Jurkat cells (48 hrs), 1 nM",900.4 pg/mL
same,IL-2 pg/mL at given concentration (nM),"[2]; Table 7, Jurkat cells (48 hrs), 10 nM",796.3 pg/mL
same,IL-2 pg/mL at given concentration (nM),"[2]; Table 7, Jurkat cells (48 hrs), 100 nM",873.3 pg/mL
same,IL-2 pg/mL at given concentration (nM),"[2]; Table 7, Jurkat cells (48 hrs), 1000 nM",759.9 pg/mL
same,IL-2 pg/mL at given concentration (nM),"[2]; Table 7, Jurkat cells (48 hrs), 10000 nM",459.8 pg/mL
"CC(C)[C@]12O[C@H]1[C@@H]1O[C@]13[C@]1(O[C@H]1C[C@H]1C4=C(CC[C@@]13C)C(=O)OC4)[C@@H]2OC(=O)N1CCN(C)CC1 [PG672, N-methylpiperazinecarbonyl (carbamate)]",conversion in human serum (in words),[1],less readily converted
same,% apoptotic cells at given concentration (nM),"[1]; Table 4, medium, 10000 nM",48.6%
same,% apoptotic cells at given concentration (nM),"[1]; Table 4, serum, 0 hr, 10000 nM",47.6%
same,% apoptotic cells at given concentration (nM),"[1]; Table 4, serum, 48 hr, 0.03 nM",42.7%
same,% apoptotic cells at given concentration (nM),"[1]; Table 4, serum, 48 hr, 0.1 nM",45.2%
same,% apoptotic cells at given concentration (nM),"[1]; Table 4, serum, 48 hr, 0.3 nM",45.4%
same,% apoptotic cells at given concentration (nM),"[1]; Table 4, serum, 48 hr, 1 nM",45.9%
same,% apoptotic cells at given concentration (nM),"[1]; Table 4, serum, 48 hr, 3 nM",45.3%
same,% apoptotic cells at given concentration (nM),"[1]; Table 4, serum, 48 hr, 10 nM",46.0%
same,% apoptotic cells at given concentration (nM),"[1]; Table 4, serum, 48 hr, 30 nM",46.8%
same,% apoptotic cells at given concentration (nM),"[1]; Table 4, serum, 48 hr, 100 nM",46.6%
same,% apoptotic cells at given concentration (nM),"[1]; Table 4, serum, 48 hr, 300 nM",42.3%
same,% apoptotic cells at given concentration (nM),"[1]; Table 4, serum, 48 hr, 1000 nM",43.7%
same,% apoptotic cells at given concentration (nM),"[1]; Table 4, serum, 48 hr, 3000 nM",44.9%
same,% apoptotic cells at given concentration (nM),"[1]; Table 4, serum, 48 hr, 10000 nM",63.2%
same,apoptotic activity (in words),[1]; after 48 hr. incubation in human serum,activity at high concentrations
same,bioactivity in IL-2 inhibition assays (in words),[2],some level of bioactivity
same,IL-2 pg/mL at given concentration (nM),"[2]; Table 8, Jurkat cells, 0.0001 nM",103.3 pg/mL
same,IL-2 pg/mL at given concentration (nM),"[2]; Table 8, Jurkat cells, 0.001 nM",90.8 pg/mL
same,IL-2 pg/mL at given concentration (nM),"[2]; Table 8, Jurkat cells, 0.01 nM",99.1 pg/mL
same,IL-2 pg/mL at given concentration (nM),"[2]; Table 8, Jurkat cells, 0.1 nM",117.1 pg/mL
same,IL-2 pg/mL at given concentration (nM),"[2]; Table 8, Jurkat cells, 1 nM",91.4 pg/mL
same,IL-2 pg/mL at given concentration (nM),"[2]; Table 8, Jurkat cells, 10 nM",99.1 pg/mL
same,IL-2 pg/mL at given concentration (nM),"[2]; Table 8, Jurkat cells, 100 nM",64.6 pg/mL
same,IL-2 pg/mL at given concentration (nM),"[2]; Table 8, Jurkat cells, 1000 nM",26.8 pg/mL
same,IL-2 pg/mL at given concentration (nM),"[2]; Table 8, Jurkat cells, 10000 nM",8.7 pg/mL
"CC(C)[C@]12O[C@H]1[C@@H]1O[C@]13[C@]1(O[C@H]1C[C@H]1C4=C(CC[C@@]13C)C(=O)OC4)[C@@H]2OC(=O)O[C@H](C)C(=O)OC(C)(C)C [PG681, Triptolide 14-(R)-α-Methyl-tert-butoxycarbonylmethyl Carbonate]",EC50,"[1]; 1 h, read-out: ED50 (nM) in apoptosis assay after incubation with serum, incubation time in human serum 1 hour, 37° C.",684 nM
same,EC50,[1]; [3],139 nM
same,"Conversion, as relative ED50 compared to triptolide (%)",[1]; incubation time in human serum 1 hour,7%
same,"Conversion, as relative ED50 compared to triptolide (%)",[1]; [4],40%
same,IC50,[2],3 nM
same,Conversion (%),[2],55%
